The values below come from US20240327320A1, “NOVEL ROUTES OF CHEMICAL SYNTHESIS OF 20S(OH)D3, 20S,25(OH)2D3, 20S,23S(OH)2D3, AND 20S,23R(OH)2D3 AND THEIR MODIFICATION OF THE IMMUNE ACTIVITY OF PBMCS” (United State Government as represen ted by the Department …, priority 2023, published 2024).

Data set [1] relates to Human dermal fibroblasts (HDFn). Description: Proliferation, MTS assay, fibroblasts. Format: cell-based. The note with it: 24 h or 48 h, 0.1-100 nM, FIG. 6. On the procedure:
(§1) Human dermal fibroblasts isolated from the skin of black neonates (HDFn) and human epidermal (HaCaT) keratinocytes cultured as described previously (Slominski A, et. al., (2013) The Journal of Clinical Endocrinology and Metabolism 98(2) E298-303; Slominski A T, et. al., (2011) Am J Physiol Cell Physiol 300(3) C526-41) were used for the experiments. Briefly, HDFn were plated onto 96-well plates at a confluence of about 70% in their seventh passage. Both HDFn and HaCaT keratinocytes were treated with 20S(OH)D3, 20S,25(OH)2D3, 20S,23S(OH)2D3, 20S,23R(OH)2D3 or 1α,25(OH)2D3 (Sigma-Aldrich, St. Louis, MO, USA) dissolved in ethanol and diluted in DMEM containing charcoal-treated serum, as previously described (Janjetovic Z, et. al., (2021) Endocrinology 162(1); Chaiprasongsuk A, et. al., (2020) Free Radic Biol Med 155 87-98; Slominski A T, et. al., (2011) Am J Physiol Cell Physiol 300(3) (2011) C526-41). The vehicle control comprised 0.1% ethanol. Proliferation was estimated using MTS (Promega, Madison, WI) assay. The number of viable cells was measured in 6 replicates.
(§2) Referring to FIG. 6A-D, inhibition of cell proliferation by 20S(OH)D3, 20S,25(OH)2D3, 20S,23S(OH)2D3 and 20S,23R(OH)2D3 in comparison to 1α,25(OH)2D3 is represented. […] Data are means±SD (n=6) and were analyzed using Student's t-test with p<0.05 (*), p<0.01 (**) or p<0.001 (***).
On the technique in general: Tetrazolium assays rely on reduction of a dye to a coloured formazan, in cell work by metabolically active cells.

Data set [2] has as its system Human epidermal (HaCaT) keratinocytes. Description: Proliferation, MTS assay, keratinocytes. Format: cell-based. To be noted: 24 h or 48 h, 0.1-100 nM, FIG. 6. The method, then: as §1, §2
For data set [3] the following is noted: literature, at the same doses; cited from earlier work.
A further data set addresses T1, Human AhR (Homo sapiens, UniProt P35869).
T1 construct: purchased Indigo Biosciences
T1 sequence (P35869 11-848): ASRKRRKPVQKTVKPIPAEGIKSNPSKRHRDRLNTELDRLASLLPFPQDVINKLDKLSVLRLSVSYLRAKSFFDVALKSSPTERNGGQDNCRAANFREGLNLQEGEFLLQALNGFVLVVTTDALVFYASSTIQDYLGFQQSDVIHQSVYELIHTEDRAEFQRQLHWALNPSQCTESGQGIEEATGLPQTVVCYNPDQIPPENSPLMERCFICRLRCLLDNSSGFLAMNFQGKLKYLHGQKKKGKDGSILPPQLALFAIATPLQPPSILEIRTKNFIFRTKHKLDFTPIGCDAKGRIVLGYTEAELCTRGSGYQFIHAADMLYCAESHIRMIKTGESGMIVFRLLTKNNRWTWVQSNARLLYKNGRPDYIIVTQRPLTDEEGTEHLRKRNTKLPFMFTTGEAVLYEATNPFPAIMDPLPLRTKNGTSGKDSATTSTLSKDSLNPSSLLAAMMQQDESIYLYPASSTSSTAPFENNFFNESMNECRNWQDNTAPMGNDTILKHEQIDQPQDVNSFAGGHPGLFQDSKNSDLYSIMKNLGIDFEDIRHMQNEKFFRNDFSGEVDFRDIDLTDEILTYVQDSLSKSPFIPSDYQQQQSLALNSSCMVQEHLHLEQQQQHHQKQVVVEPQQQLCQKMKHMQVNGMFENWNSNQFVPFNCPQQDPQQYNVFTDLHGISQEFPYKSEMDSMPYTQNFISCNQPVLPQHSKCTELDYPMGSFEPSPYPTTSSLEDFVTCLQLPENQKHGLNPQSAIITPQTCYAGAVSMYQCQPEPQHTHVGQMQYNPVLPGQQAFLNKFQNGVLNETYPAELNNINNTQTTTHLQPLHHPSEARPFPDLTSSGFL
Description: Human AhR Reporter Assay System (luciferase). To be noted: 23 h treatment. It counts as cell-based. The method, then: The binding of chemically synthesized secosteroids to AhR was tested using the Human AhR Reporter Assay System (Indigo Biosciences, State College, PA, USA) following the manufacturer's protocol and as detailed previously (Slominski A T, et. al., (2018) Int J Mol Sci 19(10)). Briefly, the cells including the luciferase reporter gene linked to an AhR-responsive promoter were treated with the compounds for 23 h and the luminescence signal was measured using Cytation 5 (Biotek, Winooski, VT, USA) after treatment with the detection substrate provided in the kit system.
Background: Reporter assays use an easily measured gene product as a stand-in for the process of interest.

A further data set concerns the target T2, LXRβ (Homo sapiens, UniProt P55055).
T2 construct: purchased Thermo Fisger Scientific, Inc
T2 sequence (P55055 222-460 limits assumed): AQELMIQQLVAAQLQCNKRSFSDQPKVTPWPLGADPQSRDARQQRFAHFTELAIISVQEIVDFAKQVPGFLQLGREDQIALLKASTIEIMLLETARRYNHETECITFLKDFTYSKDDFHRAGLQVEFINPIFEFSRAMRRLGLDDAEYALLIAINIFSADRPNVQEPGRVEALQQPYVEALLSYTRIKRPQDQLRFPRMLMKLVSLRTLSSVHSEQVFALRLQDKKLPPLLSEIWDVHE
Kind of data set: LanthaScreen TR-FRET LXRβ coactivator assay. The note with it: TR-FRET ratio 520/495 nm, FIG. 8E-F. It counts as biochemical. On the procedure:
The bindings were performed using the LanthaScreen TR-FRET LXRa/0 Coactivator kit (Thermo Fisger Scientific, Inc., Waltham, MA) as described previously (Slominski A T, et. al., (2021) Sci Rep 11(1) 8002). Briefly, TR-FRET ratios were calculated by dividing the emission at 520 nm by that at 495 nm using Synergy neo2 (BioTek, Winooski, VT).
In general terms: In TR-FRET formats the signal depends on donor and acceptor labels being close together.

`C=C1CC[C@H](O)C/C1=C/C=C1\CCC[C@@]2(C)[C@H]1CC[C@@H]2[C@@](C)(O)CCCC(C)C` [20S(OH)D3, (20S)-20-Hydroxyvitamin D3]: in data set [1], the “inhibition of fibroblast proliferation” value is “inhibits fibroblast and keratinocyte proliferation”. Besides, the “inhibition of keratinocyte proliferation” value in data set [2] was “inhibits fibroblast and keratinocyte proliferation”. The “calcemic activity / toxicity” value in data set [3] is on record as “non-calcemic”.

For the molecule `C=C1CC[C@H](O)C/C1=C/C=C1\CCC[C@@]2(C)[C@H]1CC[C@@H]2[C@@](C)(O)C[C@H](O)CC(C)C` [20S,23R(OH)2D3, (20S,23R)-20,23-Dihydroxyvitamin D3], the “activity on AhR” value at Human AhR is given as “reverse agonist”. In addition, on LXRβ, the “activity on LXRβ” value was “less efficient in activation of LXRβ than 20S,23S(OH)2D3”.

Consider `C=C1CC[C@H](O)C/C1=C/C=C1\CCC[C@@]2(C)[C@H]1CC[C@@H]2[C@@](C)(O)C[C@@H](O)CC(C)C` [20S,23S(OH)2D3, (20S,23S)-20,23-Dihydroxyvitamin D3], for which the “activity on AhR” value on Human AhR was “agonistic activity”. In addition, on LXRβ, the “activity on LXRβ” value is “better affinity with LXRβ”. Moreover, the “calcemic activity / toxicity” value in data set [3] was “non-calcemic”.

Turning to `C=C1CC[C@H](O)C/C1=C/C=C1\CCC[C@@]2(C)[C@H]1CC[C@@H]2[C@@](C)(O)CCCC(C)(C)O` [20S,25(OH)2D3, (20S)-20,25-Dihydroxyvitamin D3], the “inhibition of fibroblast proliferation” value in data set [1] is “inhibits fibroblast and keratinocyte proliferation”. Further, the “inhibition of keratinocyte proliferation” value in data set [2] was “inhibits fibroblast and keratinocyte proliferation”.
